# Laboratory results taken from patent publication EP0180500A1, “Thieno and furo[2,3-c]pyrrole derivatives, process for their preparation and medicaments containing them” (LIPHA, LYONNAISE INDUSTRIELLE PHARMACEUTIQUE, priority 1984, dated 1986).
# Experiments:
# [1] = system: récepteurs histaminiques H2; experiment: Histamine-induced gastric hyperacidity in the anaesthetised rat;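 as to all read-outs here: Read-out is the continuously recorded acidity of a saline perfusate flowing through the stomach and collected at the pylorus, with at least 3 rats per dose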; settings: for DE 50 et limites à 95 %: dose reducing histamine-induced hyperacidity by 50 %, histamine infusion 25 µg/kg/minute, single i.v. dose, measured at peak action, 95 % limits in brackets; for Puissance relative Ranitidine = 1: relative potency from DE 50 I.V.
# Method: Hyperacidité gastrique à l'histamine chez le rat anesthésié : (Black et Coll., Nature, 1972, 236, 385) : Des rats anesthésiés à l'éthylurétane reçoivent une perfusion continue d'histamine (25 µg/kg/minute)dans une veine jugulaire. L'estomac est continuellement perfusé par du sérum physiologique à 37°C, sous un débit constant de 3 ml/minute.
# Une canule pylorique collecte le perfusat dont l'acidité est mesurée de façon continue. Chaque composé à examiner est administré par la voie intraveineuse (une seule dose par rat).L'inhibition de l'acidité est mesurée au délai correspondant au maximum d'action (délai variable d'un composé à un autre). Un minimum de 3 rats est utilisé pour chaque dose essayée. On détermine, pour chaque composé actif de l'invention, la dose diminuant de 50 % (DE 50), l'hyperacidité induite par l'histamine. On mesure en outre, pour les composés les plus actifs, la durée d'action résultant de l'injection intraveineuse d'une dose unique correspondant à la DE 50 arrondie.
# acidité gastrique = experiment: Pylorus-ligated rats according to Shay (gastric antisecretory test); settings: Rattus norvegicus, ip, 4 h, read-out: DE 50 et limites à 95 %
# Text: Quatre heures plus tard, les animaux sont sacrifiés et le contenu des estomacs prélevé pour mesure de l'acidité. Les composés sont injectés intrapéritonéalement, juste après la ligature du pylore. La dose abaissant l'acidité gastrique de 50 % (DE 50) est calculée pour chaque composé, par rapport à un lot non traité. Chaque composé est testé à 3 doses géamétriquement espacées. Chaque lot comprend 10 rats.
# [2] = molecular target: récepteurs histaminiques H2 (Cavia porcellus, UniProt P47747); experiment: Isolated guinea-pig atrium (histamine chronotropic effect, H2 blockade)
# Method: Oreillette isolée de cobaye : Des cobayes albinos pesant entre 300 et 400 g sont assomés et saignés. Après ouverture du thorax, l'oreillette droite est rapidement dégagée et placée dans une cuve à organe isolé contenant 100 ml de Krebs (composition en g/1 : NaCl 6,9 - KCl 0,35 - CaCl2 0,28 - Mg SO4 0,14 - NaHCO3 2,09 - KH2 P04 0,16, glucose 2) maintenu à 32°C et fortement oxygéné (95 % 02, 5 % CO2).
# L'oreillette est reliée à une jauge de contrainte isométrique, sous une tension de 1 g. Les battements spontanés sont enregistrés sur un enregistreur galvanométrique.
# Après une période de stabilisation de 1 heure, des doses cumulées d'histamine sont ajoutées au milieu de survie, toutes les 5 minutes, ce qui occasionne une accélération des battements par stimulation des récepteurs de l'histamine qui, dans les tissus cardiaques sont de nature H2. L'histamine est ajoutée jusqu'à ce que le rythme de l'oreillette n'augmente plus (effet maximum). On peut alors tracer la courbe représentant la variation du rythme en fonction de la concentration d'histamine dans le bain. Après rinçages et repos de 30 minutes, la même expérimentation est reprise 30 minutes après avoir ajouté un antagoniste H2 dans le bain (composé de l'invention ou produit de référence) .
# Chaque composé est ainsi testé à 3 concentrations géométriquement croissantes qui provoquent, en cas de blocage des récepteurs H2, un déplacement vers la droite des courbes concentration d'histamine/effet chronotrope. Pour chaque composé actif, nous déterminons un pA2, c'est à dire le cologarithme de la concentration du composé de l'essai pour laquelle il faut doubler la concentration d'histamine afin de retrouver un effet chronotrope donné. […] Un minimum de 3 oreillettes est utilisé pour chaque composé essayé.
# Cette préparation permet aussi de se rendre compte de la nature, réversible ou non, de l'inhibition. Dans le premier cas, il sera toujours possible de déplacer l'antagoniste des récepteurs en pratiquant des rinçages répétés ou en utilisant une concentration plus forte d'histamine, ce qui se traduira par des courbes concentration d'histamine/ef- fet chronotrope, parallèles mais supexposables.
# Par contre, dans le deuxième cas (inhibition difficilement réversible), l'antagonisme H2 ne peut être complètement levé, ni par rinçages ni par des concentrations élevées d'histamine, ce qui se traduit par des courbes dose/effet non superposables (l'effet chronotrope maximum est de plus en plus faible quand la concentration de l'antagoniste H2 croit).
# rats = settings: rat, in vivo, iv
# Text: (§1) Les composés de l'invention sont en général très peu toxiques.
# souris = settings: in vivo, iv
# Text: as §1
# récepteurs histaminiques H2 (Cavia porcellus, UniProt P47747), sequence (P47747 whole entry): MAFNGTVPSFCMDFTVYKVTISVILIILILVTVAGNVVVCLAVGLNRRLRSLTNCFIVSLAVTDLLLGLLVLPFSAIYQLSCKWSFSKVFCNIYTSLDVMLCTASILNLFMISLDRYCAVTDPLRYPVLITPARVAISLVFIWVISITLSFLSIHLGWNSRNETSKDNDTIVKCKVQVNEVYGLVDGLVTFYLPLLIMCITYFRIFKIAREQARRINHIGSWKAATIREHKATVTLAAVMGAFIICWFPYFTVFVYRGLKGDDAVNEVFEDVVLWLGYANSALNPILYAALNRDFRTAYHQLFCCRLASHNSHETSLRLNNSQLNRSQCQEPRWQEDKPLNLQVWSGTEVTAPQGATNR
Kb [2],Compound,DE 50 et limites à 95 % [1],ED50 (acidité gastrique),Puissance relative Ranitidine = 1 [1],effet toxique (rats),effet toxique (souris)
–,"CNC(=NC#N)NCCSCc1[nH]cnc1C [Cimétidine, reference compound]","0,4 (0,18-0,9) mg/kg/I.V.",42 mg/kg,–,–,–
1.32 µM,"CNC(=C[N+](=O)[O-])NCCCOc1cccc2c1CCN(C)C2 [Composé A, N-méthyl N' - [(méthyl-2 tétrahydro-1,2,3,4 isoqwnoléine-5 oxy)-3 propyl] nitro-2 éthène diamine-1,1, reference compound]",> 5 mg/kg/I.V.,> 50 mg/kg,–,–,–
0.105 µM,CCN1Cc2cc(CSCCNC(=NC#N)NC)sc2C1 [Exemple 1],"0,6 (0,25-1,5) mg/kg/I.V.",19 mg/kg,"0,15",–,–
0.0776 µM,"CCN1Cc2cc(CSCCNC(=C[N+](=O)[O-])NC)sc2C1 [Exemple 3, N-[ [ (Ethyl-5 dihydro-5,6-4H-thiéno [2,3-c]pyrrolyl-2)méthylthio]-2 éthyl]N'-méthyl nitro-2 éthènediamine-1,1]","0,3 (0,1 -0,9) mg/kg/I.V.",8 mg/kg,"0,3",–,–
0.129 µM,"CCN1Cc2cc(CSCCC(N)=NS(N)(=O)=O)sc2C1 [Exemple 8, [ (Ethyl-5 dihydro-5,6-4H-thiéno [2,3-c]pyrrolyl-2)méthylthio]-3 N-sulfamoyl propanamidine]","0,5 (0,18-1,4) mg/kg/I.V.",18 mg/kg,"0,18",–,–
–,CCN1Cc2cc(CSCCNc3nc(N)nn3C)sc2C1 [Exemple 11],"0,4 (0,15-1) mg/kg/I.V.",–,"0,22",–,–
0.0209 µM,"CCN1Cc2cc(CSCCNc3n[s+]([O-])nc3N)sc2C1 (centres unmarked) [Exemple 13, N-[ [ (Ethyl-5 dihydro-5,6-4H-thiéno [2,3-c]pyrrolyl-2)méthylthio]-2 éthyl] oxyde-1 thiadiazole [1,2,5,] diamine-3,4]","0,03 (0,02-0,05) mg/kg/I.V.",1.5 mg/kg,3,–,–
0.0891 µM,"CCCCCN1Cc2cc(CSCCNC(=C[N+](=O)[O-])NC)sc2C1 [Exemple 18, N-[ [ (Dihydro-5,6 n.pentyl-5-4H-thiéno [2,3-c]pyrrolyl-2)méthylthio]-2 éthyl]N'-méthyl nitro-2 éthène diamine-1,1]","0,5 (0,17-1,5) mg/kg/I.V.",15 mg/kg,"0,18",–,–
1.26 µM,CCN1Cc2sc(CSCCNC(=C[N+](=O)[O-])NC)c(C)c2C1 [Exemple 19],> 5 mg/kg/I.V.,> 50 mg/kg,–,–,–
0.0427 µM,"CCN1Cc2cc(CSCCNc3n[s+]([O-])nc3NC)sc2C1 (centres unmarked) [Exemple 20, N-[ [ (Ethyl-5 dihydro-5,6-4H-thiéno [2,3-c]pyrrolyl-2)méthylthio]-2 éthyl]N'-méthyl oxyde-1 thiadiazole-[1,2,5] diamine-3,4]","0,1 (0,03-0,3) mg/kg/I.V.",20 mg/kg,"0,9",–,–
0.0794 µM,"C#CCNc1n[s+]([O-])nc1NCCSCc1cc2c(s1)CN(CC)C2 (centres unmarked) [Exemple 21, N-[ [ (Ethyl-5 dihydro-5,6-4H-thiéno [2,3-c]pyrrolyl-2)méthylthio]-2 éthyl] N'-propargyl oxyde-1 thiadiazole [1,2,5] diamine-3,4]","0,6 (0,3 -1,2) mg/kg/I.V.",32 mg/kg,"0,15",–,–
0.0427 µM,CCCCN1Cc2cc(CSCCNc3n[s+]([O-])nc3N)sc2C1 (centres unmarked) [Exemple 28],"0,2 (0,08-0,5) mg/kg/I.V.",1 mg/kg,"0,45",–,–
0.0646 µM,"CCCCCCN1Cc2cc(CSCCNc3n[s+]([O-])nc3N)sc2C1 (centres unmarked) [Exemple 30, N-[ [ (n.Hexyl-5 dihydro-5,5-4H-thiéno [2,3-c]pyrrolyl-2)méthylthio]-2 éthyl] oxyde-1 thiadiazole [1,2,5] diamine-3,4]","0,2 (0,07-0,6) mg/kg/I.V.",0.5 mg/kg,"0,45",–,–
0.0309 µM,CCCCCN1Cc2cc(CSCCNc3n[s+]([O-])nc3N)sc2C1 (centres unmarked) [Exemple 31],"0,15 (0,07-0,3) mg/kg/I.V.",3.6 mg/kg,"0,6",–,–
0.049 µM,"COCCN1Cc2cc(CSCCNc3n[s+]([O-])nc3N)sc2C1 (centres unmarked) [Exemple 33, N-[ [ [Dihydro-5,6 (méthoxy-2 éthyl) -5-4H-thiéno [2,3-c]pyrolyl-2]méthylthio]-2 éthyl] oxyde-1 thiadiazole [1,2,5] diamine-3,4]","0,2 (0,08-0,5) mg/kg/I.V.",0.7 mg/kg,"0,45",–,–
0.0631 µM,"CCCN1Cc2cc(CSCCNc3c(N)c(=O)c3=O)sc2C1 [Exemple 34, Amino-3 [ [ (dihydro-5,6 n.propyl-5-4H-thiéno [2,3-c]pyrrolyl-2)méthylthio]-2 éthylamino]-4 cyclobutène dione-1,2]","0,25 (0,12-0,5) mg/kg/I.V.",11 mg/kg,"0,36",–,–
0.0363 µM,"CNC(=C[N+](=O)[O-])NCCSCc1ccc(CN(C)C)o1 [Ranitidine, reference compound]","0,09 (0,05-0,17) mg/kg/I.V.",14 mg/kg,1,–,–
–,"N-Cyano N' -[ [ (dihydro-5,6 isopropyl-5-4H-thiéno [2,3-c] pyrrolyl-2) méthylthio]-2 éthyl] N"" méthyl guanidine [Exemple 6]",> 5 mg/kg/I.V.,–,–,–,–
–,"N-[ [ (Isobutyl-5 dihydro-5,6-4H-thiéno [ 2,3-c ] pyrrolyl-2) méthylthio ]-2 éthyl J oxyde-1 thiadiazole [ 1,2,5 ] diamine-3,4 [Exemple 29]","0,1 (0,04-0,25) mg/kg/I.V.",–,"0,9",–,–

Compound,Kb [2],DE 50 et limites à 95 % [1],ED50 (acidité gastrique),Puissance relative Ranitidine = 1 [1],effet toxique (rats),effet toxique (souris)
CCCN1Cc2cc(CSCCNc3n[s+]([O-])nc3N)sc2C1 (centres unmarked) [Exemple 22],0.017 µM,"0,05 (0,02-0,11) mg/kg/I.V.",0.5 mg/kg,"1,8",aucun effet toxique,aucun effet toxique
